SMILES strings stand for the structures.

This data set can be described thus: gradient 5% acetonitrile 3 min, to 50% in 2 min, to 85% in 15 min, held 3 min, 100 µL/min. Particulars: column: Zorbax Extend-C18 2.1 x 50 mm; eluents: water / acetonitrile, 0.1% formic acid. The method, boiled down: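 Pure standards were analyzed in mixtures of ~100 molecules using HPLC coupled to a quadrupole time-of-flight mass spectrometer, in both positive and negative ionization mode. Separation used a Zorbax Extend-C18 column (2.1 × 50 mm, 1.8 μm) at 100 μL/min, with water and acetonitrile each containing 0.1% formic acid. Dead and dwell volumes were 40 μL and 900 μL, and data were collected over 3 months. Retention time was read from computationally picked adduct peaks, each inspected manually.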
In turn, `Cc1cccc2nnc(N3CCC(C(=O)N4CCOCC4)CC3)n12` returned an RP-LC retention time of 568 s.

The molecule `Cc1cc2[nH]c(C(=O)NCc3ccc(N4CCOCC4)cc3)c(CN3CCCC3)c2s1` yielded an RP-LC retention time of 660 s.

Take `CC(C)CN1C(=O)CCc2cc(NS(=O)(=O)c3ccccc3F)ccc21`: the RP-LC retention time was 845 s.

On to `CC1CCC2(CC1)NC(=O)N(CC(=O)Nc1ccccc1Cl)C2=O` (centres undefined), for which the RP-LC retention time was found to be 858 s.

Molecule `O=C(Nc1ccc(N2CCN(c3ccccc3)C2=O)nc1)c1ccc(Br)o1` had an RP-LC retention time of 892 s.

Molecule `O=C(NCc1ccccc1)N1CCN(c2nc3cccnc3n(Cc3ccccc3)c2=O)CC1` showed an RP-LC retention time of 1020 s.

As for `COc1ccc(NC(=O)CN2C(=O)C(C)(C)c3ccccc32)c(OC)c1`, the RP-LC retention time worked out at 869 s.

In the case of `CCn1cc(S(=O)(=O)N2CC(Cn3c(C)cnc3-c3ccncc3)C2)cn1`, the RP-LC retention time was 574 s.

`COc1ccc(CC(=O)Nc2ccc3c(c2)Sc2ncccc2C(=O)N3C(C)C)cc1` gave an RP-LC retention time of 844 s.

With `CCOc1ccc(-c2[nH]ncc2CNS(=O)(=O)c2ccc(OC)c(Cl)c2)cc1`, the RP-LC retention time stood at 860 s.

Molecule `O=C(CCn1nnc2cc(-c3noc(-c4ccc(Cl)cc4)n3)ccc21)N1CCOCC1` returned an RP-LC retention time of 936 s.

With `COc1ccc(-c2cn3cccnc3n2)cc1NC(=O)c1cc(Br)ccc1Cl`, the RP-LC retention time came to 768 s.

Molecule `O=S(=O)(c1cccn2c(SCc3cc(F)cc(F)c3)nnc12)N1CCCC1` showed an RP-LC retention time of 845 s.

With `COCc1nc2cccnc2n1C1CCN(C(=O)Nc2ccc(Cl)cc2)CC1`, the RP-LC retention time was 744 s.

`CCN1C(=O)c2cccnc2Sc2cc(CNC(=O)c3cccc(F)c3)ccc21` gave an RP-LC retention time of 791 s.

`O=C(Cn1c(=O)n(Cc2ccc3c(c2)OCO3)c(=O)c2ncccc21)N1CCCc2ccccc21`: the RP-LC retention time turned out to be 826 s.

For the molecule `Cc1cccc(NS(=O)(=O)c2cc3c(s2)CCN(C(=O)C2CC2)C3)c1C`, the RP-LC retention time was determined as 858 s.

For `CC(C)S(=O)(=O)N1CCCC(Cn2cc(COc3ccc4c(c3)CCC4)nn2)C1` (centres undefined), the RP-LC retention time worked out at 595 s.

Take `O=C(O)c1nnn(-c2ccc(F)cc2)c1-c1cccnc1`: the RP-LC retention time turned out to be 629 s.

In the case of `O=C1CC(NC(=O)c2cc(-c3ccc(F)cc3)n[nH]2)CN1` (centres undefined), the RP-LC retention time was 604 s.

`O=C(NCc1ccccc1C(F)(F)F)C1CCCN(c2nccnc2Sc2ccccc2)C1` (centres undefined) yielded an RP-LC retention time of 1110 s.

`COc1ccc(-c2cc3nn(CC(=O)N4CCC(C)CC4)c(=O)n3c(C)n2)cc1` yielded an RP-LC retention time of 894 s.

In turn, `Cc1cnc(C2CN(Cc3cccc(OC(F)(F)F)c3)C2)n1CC1CC1` yielded an RP-LC retention time of 594 s.

`COc1ccc(S(=O)(=O)N2CCC(n3c(-c4ccoc4)nc4cccnc43)C2)cc1` (centres undefined) returned an RP-LC retention time of 831 s.

`COc1cccc(-c2nnc(Cc3nc(-c4cccc(F)c4)no3)o2)c1` showed an RP-LC retention time of 991 s.

`CC(C)Cn1c(=O)c(C(=O)NCCCc2ccccc2)nc2cccnc21` yielded an RP-LC retention time of 888 s.

Turning to `Fc1ccc(F)c(CN2CCCCC2c2nc(-c3cnccn3)no2)c1` (centres undefined), the RP-LC retention time came out at 918 s.

`Cc1ccccc1CC(=O)N1CCN(c2nc(CN3CCOCC3)cs2)CC1` yielded an RP-LC retention time of 636 s.

`Cc1c(C2CCN(C(=O)c3nccc4ccccc34)CC2)noc1N`: the RP-LC retention time is 617 s.

As for `COCCN1CCn2cc(S(=O)(=O)Nc3ccc(OC)c(Cl)c3)cc2C1=O`, the RP-LC retention time came to 726 s.

`Cc1cc(OCC(=O)N2CCCCC2)nc(-c2ccc(Cl)cc2)n1` gave an RP-LC retention time of 790 s.

`Cc1nn(-c2ccccc2)c(C)c1S(=O)(=O)N1CCC(C(=O)NC2CC2)CC1` came in with an RP-LC retention time of 744 s.

As for `CC(=O)c1cccc(NC(=O)Cn2c(=O)nc(NC3CCCC3)c3ccccc32)c1`, the RP-LC retention time was 682 s.

In turn, `CCOC(=O)c1nnn(-c2ccccc2OCC)c1C(=O)OCC` registered an RP-LC retention time of 970 s.

`CCn1cc(CC(=O)NCc2cccc(OC)c2)c2cccnc21` showed an RP-LC retention time of 695 s.

For `O=S(=O)(NCCN1CCN(c2ccc(Cl)cc2)CC1)c1ccc2c(c1)OCCO2`, the RP-LC retention time came to 620 s.

For `Cc1ccc(CCNS(=O)(=O)c2ccc3c(c2)CCCC(=O)N3)cc1`, the RP-LC retention time stood at 789 s.

As to `CCc1ccc(NC(=O)C2CCN(S(C)(=O)=O)c3cc(Cl)ccc3O2)cc1` (centres undefined), the RP-LC retention time turned out to be 944 s.

As for `Cn1cc(C(=O)NCc2ccc(F)c(Cl)c2)c(S(=O)(=O)N2CCCCC2)n1`, the RP-LC retention time is 876 s.

Take `Cc1ccnc(NS(=O)(=O)c2ccc(NC(=O)c3ccc4ncsc4c3)cc2)n1`: the RP-LC retention time was determined as 626 s.

As to `CCCS(=O)(=O)c1nc2ccc(NS(=O)(=O)c3ccccc3F)cc2s1`, the RP-LC retention time came to 882 s.

Molecule `COc1cccc(NC(=O)C2CCN(S(=O)(=O)c3ccc4c(c3)CCCC(=O)N4)CC2)c1` had an RP-LC retention time of 755 s.

Molecule `COc1ccccc1Oc1c(C)oc2cc(OCC(=O)N[C@H](C)C(=O)O)ccc2c1=O` registered an RP-LC retention time of 710 s.

Turning to `CC1Oc2ccc(-c3csc(NC(=O)c4ccc(Cl)cc4)n3)cc2N(C)C1=O` (centres undefined), the RP-LC retention time amounted to 1040 s.

Take `Cc1ccccc1NC(=O)CSc1nnc2c3cc(-c4ccccc4)nn3ccn12`: the RP-LC retention time came to 841 s.

`CCn1c(=O)sc2cc(S(=O)(=O)N3CCC(C(=O)N4CCC(C)CC4)CC3)ccc21` came in with an RP-LC retention time of 900 s.

In turn, `CCOc1ccccc1NC(=O)Cn1cnc2nc(N3CCC(C(=O)NC4CC4)CC3)sc2c1=O` came in with an RP-LC retention time of 696 s.

`c1cc(-c2nc(-c3ccc4c(c3)ncn4CCN3CCCCC3)no2)ccn1`: the RP-LC retention time is 581 s.

Consider `O=C(Cc1cccs1)NCCn1ncc2c(=O)n(Cc3ccccc3F)cnc21`, for which the RP-LC retention time was 666 s.

In turn, `CCOCCCNC(=O)c1c(N)n(-c2ccc(C(C)=O)cc2)c2nc3ccccc3nc12` returned an RP-LC retention time of 876 s.

For the molecule `Cn1cc(C2=CCN(S(=O)(=O)Cc3ccccc3)CC2)c2cccnc21`, the RP-LC retention time is 898 s.

Take `O=C1CC2(CCN(S(=O)(=O)c3cc(F)ccc3F)CC2)Oc2ccccc21`: the RP-LC retention time was 929 s.

In turn, `Cc1nn(C)c(C)c1CCNC(=O)Nc1ccccc1Br` came in with an RP-LC retention time of 651 s.

Consider `CCN(C(=O)C1CCCN1S(=O)(=O)c1cc2c(cc1C)NC(=O)C(C)O2)c1ccccc1` (centres undefined), for which the RP-LC retention time is 814 s.

For `Cc1ccc(-c2noc(C3CC(=O)N(c4ccc(Cl)cc4)C3)n2)cc1` (centres undefined), the RP-LC retention time is 1060 s.

As for `O=C(Nc1cnc(-c2ccc(Cl)cc2)nc1)c1cccs1`, the RP-LC retention time was determined as 1040 s.

In turn, `O=C(NCc1cccnc1)C(CCO)Sc1nc2sc3c(c2c(=O)[nH]1)CCCC3` (centres undefined) displayed an RP-LC retention time of 544 s.

As to `COc1ccc(Nc2c(C(=O)N3CCC(C)CC3)cnc3nc(C)ccc23)c(OC)c1`, the RP-LC retention time was found to be 662 s.

`CN1C(=O)[C@H]2CN(Cc3ccc(Cl)cc3F)C[C@H]2C1=O` returned an RP-LC retention time of 644 s.

`COc1cccc(NC(=O)N2CC(c3nc(Cc4ccccc4)no3)C2)c1OC`: the RP-LC retention time was found to be 831 s.

On to `COc1ccc(N2CC(c3nc(-c4cc(OC)c(OC)c(OC)c4)no3)CC2=O)cc1` (centres undefined), for which the RP-LC retention time was 743 s.

`CCOCc1nc(C2CCCN(C(=O)NC3CCCCC3)C2)no1` (centres undefined): the RP-LC retention time came to 804 s.

Molecule `O=C(CN1C(=O)CSc2ccc(C(=O)N3CCCCC3)cc21)NCCCN1CCCCC1` showed an RP-LC retention time of 610 s.

The molecule `COCCOc1ccc2c(n1)CCN(C(=O)NC1CCCCC1)C2` showed an RP-LC retention time of 760 s.

As to `Cn1cc(CC(=O)N2CCN(c3ccccc3F)CC2)c2ccccc21`, the RP-LC retention time amounted to 915 s.

Regarding `COCCC(=O)NCCC1CCN(C(=O)Nc2cc(F)cc(F)c2)CC1`, the RP-LC retention time was determined as 695 s.

With `COc1cc(C(=O)NC2CCN(c3cc(-c4ccc(F)cc4)[nH]n3)C2)cc(OC)c1OC` (centres undefined), the RP-LC retention time was found to be 706 s.

With `COc1ccc(C2C(C(=O)Nc3cc(OC)c(OC)c(OC)c3)c3ccccc3C(=O)N2C)cc1` (centres undefined), the RP-LC retention time was found to be 815 s.

On to `O=c1c2nnn(Cc3ccc(Cl)cc3)c2ncn1Cc1nc(-c2ccc3c(c2)OCO3)no1`, for which the RP-LC retention time turned out to be 982 s.

`CCn1ccc2cc(S(=O)(=O)N3CCCN(C(=O)NCc4ccco4)CC3)ccc21` had an RP-LC retention time of 832 s.

In turn, `Cc1nc2ncc(-c3ccnc(N4CCN(Cc5ccccc5)CC4)n3)c(C)n2n1` registered an RP-LC retention time of 604 s.

`CC(C)NC(=O)c1ccc(OCC2CCN(C(=O)c3ccccc3Cl)CC2)cc1` had an RP-LC retention time of 820 s.

Regarding `COc1ccc2c(c1)N(CC(C)CN(C)C)c1ccccc1S2` (centres undefined), the RP-LC retention time came to 804 s.

The molecule `Cc1nc(-c2cnccn2)nc2c1CCC(=O)N2Cc1cccnc1` gave an RP-LC retention time of 556 s.

`O=C(Cn1cnc2c(-c3ccc(F)cc3)csc2c1=O)NC1CCCC1` yielded an RP-LC retention time of 854 s.

In turn, `COc1ccc(N2CC(NC(=O)NCCC3=CCCCC3)CC2=O)cc1` (centres undefined) gave an RP-LC retention time of 731 s.

Molecule `CCc1ccccc1NC(=O)C1CCCN(S(=O)(=O)c2ccc(OC)c(C)c2)C1` (centres undefined) showed an RP-LC retention time of 1020 s.

As to `CC(C)CCNC(=O)N1CCCC(C)(C(=O)NCc2ccccc2)C1` (centres undefined), the RP-LC retention time is 834 s.

Turning to `Cn1ccc2cc(CCC(=O)N3CCN(c4ccc(F)cc4)CC3)ccc21`, the RP-LC retention time came out at 951 s.

Values taken from the METLIN SMRT retention time set (Domingo-Almenara et al. 2019).
